In publication PMC7714403 (JCI Insight, 2020):

Legend:
MERTK = target: T1, MERTK (Homo sapiens, UniProt Q12866); assay: KdELECT binding assay
T1 construct: purchased Eurofins DiscoverX

JAK1 = target: T2, JAK1 (Homo sapiens, UniProt P23458); assay: KdELECT binding assay
T2 construct: purchased Eurofins DiscoverX

[1] = system: MV4-11, MOLM13, and MOLM13-RES cells; assay: Cell cycle analysis; type: cell-based, human; conditions: 20 nM, 12 hours
Experimental: (§1) Luc+ or MOLM13-Res -Luc+ cells, 0.5 million OCI-AML3 -Luc+ cells, and 10,000 Ba/F3-FLT3-ITD/F691L-GFP+ cells. Weekly tumor engraftment of cell line xenograft models were assessed after injection of D-luciferin (150mg/kg i.p.; Gold Biotechnology, Inc, St. Louis, MO) on Xenogen IVIS-200 imaging system (Perkin Elmer, Waltham, MA) or GFP monitoring by peripheral blood via BD LSR II flow cytometer (BD Biosciences, San Jose, CA). Signal intensity was analyzed using Living Image Software (PerkinElmer) or FlowJo v10.0.08 software (FlowJo, LLC, Ashland, OR). Mice were randomized to treatment groups based on signal intensity and leukemia burden. Drug treatments were started on days 3, 7, or 13 after cell injection in OCI-AML3, MOLM13, and MOLM13-Res xenografts, respectively. In murine AML transplantation model, 1 million FLT3-ITD+/-/IDH2-R140Q+/- splenocytes (in house colony) were intravenously injected in male NSG mice. On day 7, mice were started on drug treatments. […]
(§2) At indicated time points, cells were collected and washed with PBS. CD11b expression was measured using anti-CD11b -APC antibody (BioLegend, San Diego, CA). […] CD11b expression and apoptosis were measured by BD LSR II flow cytometer. […]
(§3) with DAPI in 0.1% Triton-X (ThermoFisher Scientific) PBS for 30 minutes at room temperature and protected from light. The DNA content was determined using a BD LSR II flow cytometer. […]

OCI-AML3 cells = assay: Cell cycle analysis; type: cell-based, human; conditions: 20 nM, 12–24 hours
Experimental: as §1, §2, §3

[2] = system: native kinases in MOLM13 cells; assay: KiNativ in situ kinase profiling, MOLM13 cells; type: cell-based, human; conditions: 100 nM, compared with DMSO
Experimental: Samples were analyzed by KiNativ in situ kinase profiling by ActivX Biosciences.

[3] = system: CaMK2a, CaMK2b, CaMK2d, CaMK2g; assay: KiNativ, OCI cells live cell; type: cell-based, human; conditions: labeling site Lys2, peptide DLKPENLLLASK
CHK1 = CHK1 (Homo sapiens, UniProt O14757); assay: KiNativ, OCI cells live cell; type: cell-based; conditions: labeling site Lys2, peptide DIKPENLLLDER
[4] = system: FGFR1, FMS, PDGFRb, TYRO3; assay: KiNativ, OCI cells live cell; type: cell-based, human; conditions: labeling site Lys1, peptide VAVKMLK
GCN2 domain2 = target: T3, GCN2 domain2 (Homo sapiens, UniProt Q9P2K8); assay: KiNativ, OCI cells live cell; type: cell-based; conditions: 2 h
T3 construct: GCN2 domain2
T3 sequence (Q9P2K8 whole entry, the tested form may be a part): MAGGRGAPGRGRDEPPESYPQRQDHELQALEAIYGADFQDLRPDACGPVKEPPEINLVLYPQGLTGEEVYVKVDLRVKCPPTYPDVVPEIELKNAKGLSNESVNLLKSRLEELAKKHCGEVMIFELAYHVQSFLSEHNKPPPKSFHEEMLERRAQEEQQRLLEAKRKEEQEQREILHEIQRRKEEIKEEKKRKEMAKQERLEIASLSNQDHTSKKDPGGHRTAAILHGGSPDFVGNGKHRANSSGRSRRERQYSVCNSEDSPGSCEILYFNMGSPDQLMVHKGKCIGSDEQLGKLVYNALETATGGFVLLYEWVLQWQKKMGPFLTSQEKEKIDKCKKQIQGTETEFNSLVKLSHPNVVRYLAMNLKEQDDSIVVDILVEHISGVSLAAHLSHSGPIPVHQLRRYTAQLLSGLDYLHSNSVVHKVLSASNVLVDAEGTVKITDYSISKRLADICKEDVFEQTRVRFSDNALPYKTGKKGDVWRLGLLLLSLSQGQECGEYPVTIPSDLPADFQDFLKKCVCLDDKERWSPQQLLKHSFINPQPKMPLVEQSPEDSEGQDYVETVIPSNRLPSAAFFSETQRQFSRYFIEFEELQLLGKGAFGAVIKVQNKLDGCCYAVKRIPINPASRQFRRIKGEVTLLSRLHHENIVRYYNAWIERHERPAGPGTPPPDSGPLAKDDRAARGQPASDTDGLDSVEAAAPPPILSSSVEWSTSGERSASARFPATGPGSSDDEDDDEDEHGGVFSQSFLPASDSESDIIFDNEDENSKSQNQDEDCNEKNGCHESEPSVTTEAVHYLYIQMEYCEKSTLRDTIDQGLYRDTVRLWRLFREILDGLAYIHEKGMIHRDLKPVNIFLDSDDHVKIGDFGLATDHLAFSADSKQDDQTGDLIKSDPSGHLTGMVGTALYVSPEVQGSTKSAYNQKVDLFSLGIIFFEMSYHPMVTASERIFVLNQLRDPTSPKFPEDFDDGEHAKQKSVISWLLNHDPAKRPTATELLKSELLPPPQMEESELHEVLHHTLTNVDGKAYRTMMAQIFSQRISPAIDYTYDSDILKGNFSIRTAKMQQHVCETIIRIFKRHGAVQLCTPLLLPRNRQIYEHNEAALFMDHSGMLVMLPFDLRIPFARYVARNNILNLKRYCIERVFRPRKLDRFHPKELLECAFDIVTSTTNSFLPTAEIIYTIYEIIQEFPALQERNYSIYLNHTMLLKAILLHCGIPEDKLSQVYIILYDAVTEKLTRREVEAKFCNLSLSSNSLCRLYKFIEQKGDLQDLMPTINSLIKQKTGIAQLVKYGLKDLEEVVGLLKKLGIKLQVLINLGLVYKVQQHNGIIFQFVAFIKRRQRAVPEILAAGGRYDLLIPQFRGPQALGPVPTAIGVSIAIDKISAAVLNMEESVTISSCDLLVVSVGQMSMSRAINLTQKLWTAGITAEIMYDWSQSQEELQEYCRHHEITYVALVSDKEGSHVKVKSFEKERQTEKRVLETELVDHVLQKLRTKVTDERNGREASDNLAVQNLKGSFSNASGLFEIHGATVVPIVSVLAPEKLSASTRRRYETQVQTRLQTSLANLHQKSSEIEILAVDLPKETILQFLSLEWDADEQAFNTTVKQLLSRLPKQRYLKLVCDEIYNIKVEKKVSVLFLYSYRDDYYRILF

MAP2K1, MAP2K2 = assay: KiNativ, OCI cells live cell; type: cell-based, human; conditions: labeling site Lys2, peptide DVKPSNILVNSR
MARK2 = MARK2 (Homo sapiens, UniProt Q7KZI7); assay: KiNativ, OCI cells live cell; type: cell-based; conditions: 2 h, labeling site Lys1, peptide […]
MST4, YSK1 = assay: KiNativ, OCI cells live cell; type: cell-based, human; conditions: labeling site Lys2, peptide DIKAANVLLSEQGDVK
PCTAIRE1 = PCTAIRE1 (Homo sapiens, UniProt Q00536); assay: KiNativ, OCI cells live cell; type: cell-based; conditions: 2 h, labeling site Lys1, peptide […]
Sequence of PCTAIRE1 (Q00536 whole entry): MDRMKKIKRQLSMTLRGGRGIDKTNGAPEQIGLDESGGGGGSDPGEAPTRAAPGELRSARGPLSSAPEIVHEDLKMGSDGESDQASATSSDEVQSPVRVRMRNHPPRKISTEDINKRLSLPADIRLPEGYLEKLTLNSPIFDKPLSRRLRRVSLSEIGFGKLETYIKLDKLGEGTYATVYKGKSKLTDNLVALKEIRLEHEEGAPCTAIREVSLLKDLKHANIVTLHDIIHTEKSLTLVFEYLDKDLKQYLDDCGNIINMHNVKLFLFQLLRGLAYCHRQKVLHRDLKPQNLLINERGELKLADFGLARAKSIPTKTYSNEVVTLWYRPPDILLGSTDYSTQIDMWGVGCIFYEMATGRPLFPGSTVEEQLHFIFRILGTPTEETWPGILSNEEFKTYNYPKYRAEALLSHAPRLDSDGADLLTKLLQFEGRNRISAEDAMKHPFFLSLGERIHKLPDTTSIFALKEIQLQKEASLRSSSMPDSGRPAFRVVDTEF

PFTAIRE1 = PFTAIRE1 (Homo sapiens, UniProt O94921); assay: KiNativ, OCI cells live cell; type: cell-based
Sequence of PFTAIRE1 (O94921 whole entry): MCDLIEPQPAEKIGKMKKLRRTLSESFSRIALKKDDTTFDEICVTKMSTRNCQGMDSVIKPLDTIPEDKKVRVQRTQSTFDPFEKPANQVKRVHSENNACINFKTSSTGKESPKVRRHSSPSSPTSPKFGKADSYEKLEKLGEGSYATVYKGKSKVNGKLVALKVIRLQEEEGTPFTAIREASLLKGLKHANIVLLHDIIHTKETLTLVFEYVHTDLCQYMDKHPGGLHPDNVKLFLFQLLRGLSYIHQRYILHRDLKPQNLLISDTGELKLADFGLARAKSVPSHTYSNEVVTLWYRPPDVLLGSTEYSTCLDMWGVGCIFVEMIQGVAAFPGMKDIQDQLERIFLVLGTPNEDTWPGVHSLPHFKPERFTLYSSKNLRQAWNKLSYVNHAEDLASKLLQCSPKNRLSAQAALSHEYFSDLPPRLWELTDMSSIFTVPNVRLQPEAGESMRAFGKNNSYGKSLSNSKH
Sequence of PFTAIRE1 (Q8ND76 whole entry partner): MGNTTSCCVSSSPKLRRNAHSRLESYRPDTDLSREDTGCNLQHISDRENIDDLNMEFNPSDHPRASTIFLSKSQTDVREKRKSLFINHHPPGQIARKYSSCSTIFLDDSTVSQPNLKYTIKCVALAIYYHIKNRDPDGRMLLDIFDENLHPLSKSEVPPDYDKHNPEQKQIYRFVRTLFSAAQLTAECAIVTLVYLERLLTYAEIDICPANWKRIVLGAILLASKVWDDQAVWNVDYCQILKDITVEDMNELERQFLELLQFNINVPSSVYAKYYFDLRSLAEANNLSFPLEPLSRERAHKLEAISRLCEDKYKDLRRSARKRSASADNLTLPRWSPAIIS

PIP5K3 = PIP5K3 (Homo sapiens, UniProt Q9Y2I7); assay: KiNativ, OCI cells live cell; type: cell-based; conditions: labeling site ATP, peptide GGKSGAAFYATEDDRFILK
TAK1 = TAK1 (Homo sapiens, UniProt O43318); assay: KiNativ, OCI cells live cell; type: cell-based; conditions: 2 h, labeling site Lys2, peptide […]

T1 sequence (Q12866 21-999): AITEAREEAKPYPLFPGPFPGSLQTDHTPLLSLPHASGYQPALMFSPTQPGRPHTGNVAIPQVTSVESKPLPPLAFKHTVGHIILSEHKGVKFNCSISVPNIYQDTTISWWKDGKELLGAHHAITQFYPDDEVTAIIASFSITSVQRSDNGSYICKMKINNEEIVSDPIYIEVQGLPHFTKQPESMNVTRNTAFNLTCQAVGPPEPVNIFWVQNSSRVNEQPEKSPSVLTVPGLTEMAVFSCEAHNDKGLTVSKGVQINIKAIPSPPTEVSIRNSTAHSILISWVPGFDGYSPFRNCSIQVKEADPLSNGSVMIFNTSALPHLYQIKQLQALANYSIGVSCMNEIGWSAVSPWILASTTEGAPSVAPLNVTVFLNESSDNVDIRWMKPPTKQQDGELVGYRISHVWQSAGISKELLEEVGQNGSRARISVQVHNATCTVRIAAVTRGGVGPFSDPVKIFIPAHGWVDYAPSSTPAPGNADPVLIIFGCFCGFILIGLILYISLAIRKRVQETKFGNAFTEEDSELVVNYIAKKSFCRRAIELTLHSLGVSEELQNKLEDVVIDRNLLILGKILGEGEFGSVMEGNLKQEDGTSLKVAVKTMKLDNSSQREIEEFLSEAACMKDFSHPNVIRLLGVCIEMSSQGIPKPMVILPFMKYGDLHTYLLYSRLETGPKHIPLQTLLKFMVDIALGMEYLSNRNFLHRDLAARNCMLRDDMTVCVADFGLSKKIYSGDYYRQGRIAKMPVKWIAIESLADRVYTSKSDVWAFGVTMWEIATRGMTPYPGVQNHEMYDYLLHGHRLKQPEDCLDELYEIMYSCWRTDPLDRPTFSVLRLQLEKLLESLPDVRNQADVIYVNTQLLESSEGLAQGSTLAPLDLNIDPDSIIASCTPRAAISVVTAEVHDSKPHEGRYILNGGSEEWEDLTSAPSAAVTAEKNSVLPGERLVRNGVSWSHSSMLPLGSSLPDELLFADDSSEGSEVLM
T2 sequence (P23458 whole entry): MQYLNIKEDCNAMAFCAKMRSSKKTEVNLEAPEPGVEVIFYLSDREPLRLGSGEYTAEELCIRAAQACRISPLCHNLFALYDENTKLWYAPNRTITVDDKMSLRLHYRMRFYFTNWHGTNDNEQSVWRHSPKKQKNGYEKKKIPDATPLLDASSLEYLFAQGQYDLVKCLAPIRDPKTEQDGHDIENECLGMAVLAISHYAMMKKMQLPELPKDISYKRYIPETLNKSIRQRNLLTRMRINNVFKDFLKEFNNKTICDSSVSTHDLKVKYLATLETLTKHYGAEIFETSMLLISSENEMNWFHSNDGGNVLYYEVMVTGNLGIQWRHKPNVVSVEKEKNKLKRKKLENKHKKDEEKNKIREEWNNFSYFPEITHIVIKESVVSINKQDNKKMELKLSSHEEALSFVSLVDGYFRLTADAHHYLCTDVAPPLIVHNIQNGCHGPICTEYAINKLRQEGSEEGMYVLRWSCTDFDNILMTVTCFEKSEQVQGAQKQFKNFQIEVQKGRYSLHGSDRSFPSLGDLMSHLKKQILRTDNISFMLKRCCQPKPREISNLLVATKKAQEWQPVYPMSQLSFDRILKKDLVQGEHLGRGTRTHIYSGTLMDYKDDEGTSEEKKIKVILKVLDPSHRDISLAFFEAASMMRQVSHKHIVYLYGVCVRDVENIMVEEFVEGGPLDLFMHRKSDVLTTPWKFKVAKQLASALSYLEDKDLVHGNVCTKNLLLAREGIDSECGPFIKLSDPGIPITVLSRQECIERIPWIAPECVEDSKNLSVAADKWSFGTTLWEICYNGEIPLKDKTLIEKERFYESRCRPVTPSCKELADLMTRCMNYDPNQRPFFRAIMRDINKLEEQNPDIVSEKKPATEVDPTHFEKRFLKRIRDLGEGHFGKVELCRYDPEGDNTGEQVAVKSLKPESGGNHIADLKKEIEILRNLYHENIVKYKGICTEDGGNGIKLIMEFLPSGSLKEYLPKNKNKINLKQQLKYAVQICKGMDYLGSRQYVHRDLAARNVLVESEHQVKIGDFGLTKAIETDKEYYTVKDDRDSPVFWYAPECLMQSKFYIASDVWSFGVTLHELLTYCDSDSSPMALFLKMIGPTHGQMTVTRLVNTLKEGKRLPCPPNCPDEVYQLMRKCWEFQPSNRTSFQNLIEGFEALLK

Question: With `CN1CCN(Cc2ccc(Nc3ncc(Cl)c(Nc4ccccc4S(=O)(=O)N(C)C)n3)cc2)CC1` [TP-0903] as the compound, how does the Kd (MERTK) read?
Answer: Its Kd is under 0.005 µM.

Question: What about the Kd (JAK1) of the same compound?
Answer: Its Kd is 0.023 µM.

Question: And the Cell cycle [1]?
Answer: Its Cell cycle is “G2-M cell cycle arrest”.

Question: And the Cell cycle (OCI-AML3 cells)?
Answer: Its Cell cycle is “G2-M cell cycle arrest”.

Question: And the “Inhibition of AURKA/B/C, CDK6/7, BTK, and JAK1” value [2]?
Answer: Its value is “moderate to strong inhibition”.

Question: And the Inhibition [3]?
Answer: The Inhibition was 17.4%.

Question: What about the Inhibition (CHK1) of the same compound?
Answer: Its Inhibition is 29.7%.

Question: And the Inhibition [4]?
Answer: The Inhibition was 4.2%.

Question: What about the inhibition at 0.1 µM (GCN2 domain2; labeling site Lys1, peptide LDGCCYAVKR) of the same compound?
Answer: The inhibition at 0.1 µM was -6.9%.

Question: What about the inhibition at 0.1 µM (GCN2 domain2; labeling site Lys2, peptide DLKPVNIFLDSDDHVK) of the same compound?
Answer: The inhibition at 0.1 µM was -2.8%.

Question: And the Inhibition (MAP2K1, MAP2K2)?
Answer: Its Inhibition is 11.7%.

Question: What about the inhibition at 0.1 µM (MARK2) of the same compound?
Answer: The inhibition at 0.1 µM was 37.7%.

Question: What about the Inhibition (MST4, YSK1) of the same compound?
Answer: The Inhibition was 25.0%.

Question: What about the inhibition at 0.1 µM (PCTAIRE1) of the same compound?
Answer: Its inhibition at 0.1 µM is 94.6%.

Question: And the Inhibition (PFTAIRE1; labeling site Lys1, peptide LVALKVIR)?
Answer: The Inhibition was 62.2%.

Question: What about the Inhibition (PFTAIRE1; labeling site Lys2, peptide DLKPQNLLISDTGELK) of the same compound?
Answer: The Inhibition was 72.4%.

Question: And the Inhibition (PIP5K3)?
Answer: The Inhibition was 18.4%.

Question: And the inhibition at 0.1 µM (TAK1)?
Answer: The inhibition at 0.1 µM was -11.5%.
